# Key:
# [1] = system: MALPA (Malva parviflora, smallflower malva); test: Field trial, post-emergence directed spring application (April), California vineyards: visual weed control; format: in vivo; details: 35 g ai/ha
# Excerpt: (§1) As used herein, selective pre- and post-emergence control of undesirable vegetation means preventing, reducing, killing, or otherwise adversely modifying the development of the undesirable vegetation in the presence of crop plants with limited adverse effect on the crop plants. For example, a broadleaf weed control of 80% (rated visually) with crop injury of less than or equal to 20% (rated visually) would constitute selective control. In some embodiments the adverse effect on crop plants is limited to less than 10% visually rated crop injury. Visual crop injury is a composite rating accounting for all phytotoxic effects including chlorosis, necrosis, growth inhibition, epinasty, delays in maturity and seed or fruit deformity. Visual weed control is a composite rating accounting for reductions in pest plant biomass and/or stand reduction.
# (§2) Small plot research experiments were conducted in Fresno, Calif., USA to evaluate the pre-emergence and post-emergence herbicidal weed control activity and the vines crop tolerance to pre-emergence and post-emergence application of Compound I and Compound II to the weeds. Application water volume of 100 to 187 liters per hectare (L/ha) was used for all experiments. All treatments were applied with a standard small plot carbon dioxide (CO2) backpack sprayer. All treatments were tank-mixed with Crop Oil Concentrate (COC), a well known adjuvant, at 2.34 L/ha. Experimental emulsifiable concentrate (EC) formulations were used for Compounds I and II. The dimethylammonium (DMA) salt of glyphosate was used in all trials. Pindar® GT is a commercial formulation containing a pre-mix of penoxsulam+oxyfluorfen (10+476 grams of active ingredient per liter (g ai/L), respectively). Vine crop stage was dormant (no leaves on the vines during the winter) or early spring growth at the time of Compound I or Compound II application. Generally, weeds were not emerged for the pre-emergence treatments or were at the two to six-leaf stage at the time of the post-emergence herbicide application.
# (§3) Tables 1, 2 and 6 provide weed control results from pre-emergence applications of Compounds I and/or II prior to weed emergence; Tables 4, 7 and 8 provide weed control results from post-emergence applications of Compounds I and/or II applied to actively growing weeds; Tables 3 and 5 provide vine response data from pre-emergence and post-emergence applications of Compound I respectively.
# [2] = system: SETFA (Setaria faberi, giant foxtail); test: as above; format: in vivo; details: 35 g ai/ha
# Excerpt: as §1, §2, §3
# [3] = system: PANCA (Panicum capillare, witchgrass); test: as above; format: in vivo; details: 35 g ai/ha
# Excerpt: as §1, §2, §3
# [4] = system: ERIBO (Conyza bonariensis, hairy fleabane); test: as above; format: in vivo; details: 35 g ai/ha
# Excerpt: as §1, §2, §3
# [5] = system: EROCI (Erodium cicutarium, redstem filaree); test: as above; format: in vivo; details: 35 g ai/ha
# Excerpt: as §1, §2, §3
# [6] = system: AGRRE (Agropyron repens, quackgrass); test: as above; format: in vivo; details: 35 g ai/ha
# Excerpt: as §1, §2, §3
# VITSS (Vitis spp, grape) = details: in vivo
# Description: as §2, with “herbicide application. […]” for “herbicide application.”
# [7] = system: grapevines and perennial crops; test: Crop safety, general statement; format: in vivo; details: post-emergence application rates of ≤20 g ae/ha; dormant application or spring application directed under the crops
# Excerpt: (§4) Additional examples of application rates for Compound I as a pre-emergence and post-emergence application include 0.25 to 50 g ae/ha, 0.25 to 45 g ae/ha, 0.25 to 40 g ae/ha, 0.25 to 35 g ae/ha, 0.25 to 30 g ae/ha, 0.25 to 25 g ae/ha, 0.25 to 20 g ae/ha, 0.25 to 15 g ae/ha, 0.25 to 10 g ae/ha, 0.25 to 5 g ae/ha, 2.5 to 50 g ae/ha, 5 to 50 g ae/ha, 10 to 50 g ae/ha, 15 to 50 g ae/ha, 20 to 50 g ae/ha, 25 to 50 g ae/ha, 30 to 50 g ae/ha, 35 to 50 g ae/ha, 40 to 50 g ae/ha, 45 to 50 g ae/ha, 5 to 40 g ae/ha, 10 to 40 g ae/ha, 15 to 40 g ae/ha, 20 to 40 g ae/ha, 25 to 40 g ae/ha, 30 to 40 g ae/ha, 35 to 40 g ae/ha, 2.5 to 35 g ae/ha, 2.5 to 30 g ae/ha, 2.5 to 25 g ae/ha, 2.5 to 20 g ae/ha, 2.5 to 15 g ae/ha, 2.5 to 10 g ae/ha, 2.5 to 5 g ae/ha, 5 to 35 g ae/ha, 10 to 30 g ae/ha, 15 to 25 g ae/ha, and 15 to 20 g ae/ha. Further examples of application rates for Compound I as a pre-emergence and post-emergence application include 0.25 g ae/ha, 0.5 g ae/ha, 0.75 g ae/ha, 1 g ae/ha, 1.25 g ae/ha, 1.5 g ae/ha, 1.75 g ae/ha, 2 g ae/ha, 2.25 g ae/ha, 2.5 g ae/ha, 3 g ae/ha, 4 g ae/ha, 5 g ae/ha, 6 g ae/ha, 7 g ae/ha, 8 g ae/ha, 9 g ae/ha, 10 g ae/ha, 12 g ae/ha, 14 g ae/ha, 16 g ae/ha, 18 g ae/ha, 20 g ae/ha, 22 g ae/ha, 24 g ae/ha, 26 g ae/ha, 28 g ae/ha, 30 g ae/ha, 32 g ae/ha, 34 g ae/ha, 36 g ae/ha, 38 g ae/ha, 40 g ae/ha, 42 g ae/ha, 44 g ae/ha, 46 g ae/ha, 48 g ae/ha, and 50 g ae/ha. […]
# [8] = system: commercially relevant broadleaf and grass weeds; test: Pre- and post-emergence weed control, general statement; format: in vivo
# Excerpt: as §4
smiles,measurement,setting,value
"COc1cnc(OC)n2nc(NS(=O)(=O)c3c(OCC(F)F)cccc3C(F)(F)F)nc12 [Penoxsulam, reference compound]",% Visual Control 60 DAA MALPA,[1],85%
same,% Visual Control 60 DAA SETFA,[2],97%
same,% Visual Control 60 DAA PANCA,[3],85%
same,% Visual Control 60 DAA ERIBO,[4],85%
same,% Visual Control 60 DAA EROCI,[5],87%
same,% Visual Control 60 DAA AGRRE,[6],87%
same,VITSS 60 DAA Node Count,"VITSS (Vitis spp, grape)",20
same,VITSS 60 DAA Vine Length (cm),"VITSS (Vitis spp, grape)",89 cm
"COc1c(Cl)ccc(-c2nc(C(=O)O)c(Cl)c(N)c2F)c1F [Compound II, 4-amino-3-chloro-5-fluoro-6-(4-chloro-2-fluoro-3-methoxyphenyl)pyridine-2-carboxylic acid]",crop injury to grapevines and perennial crops,[7],little to no crop injury
same,efficacy on commercially relevant broadleaf and grass weeds,"[8]; application rate of 2.5 to 50 g ai/ha, pre-emergence or post-emergence application",highly efficacious
"COc1c(Cl)ccc(-c2cc(N)c(Cl)c(C(=O)O)n2)c1F [Compound I, 4-amino-3-chloro-6-(4-chloro-2-fluoro-3-methoxyphenyl)pyridine-2-carboxylic acid]",crop injury to grapevines and perennial crops,[7],little to no crop injury
same,efficacy on commercially relevant broadleaf and grass weeds,"[8]; application rate of 2.5 to 40 g ae/ha, pre-emergence and post-emergence application",highly efficacious
